Measurements: PubChem BioAssay (NCI)
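Grown in 96-well plates, cells were treated for 48 hours with each compound at five concentrations. Insufficient inhibition: endpoint recorded as highest concentration tested. GI50 marks 50% less growth. TGI is the concentration that stops growth completely.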

How the values were obtained:
Assay in all cases: inhibition of tumour cell growth, NCI panel, 48 h
786-0 renal = tested on: 786-0 renal
A498 renal = tested on: A498 renal
A549 NSCLC = tested on: A549 NSCLC
ACHN renal = tested on: ACHN renal
CAKI-1 renal = tested on: CAKI-1 renal
CCRF-CEM leukemia = tested on: CCRF-CEM leukemia
COLO 205 colon = tested on: COLO 205 colon
DLD-1 colon = tested on: DLD-1 colon
DMS 273 small cell lung = tested on: DMS 273 small cell lung
EKVX NSCLC = tested on: EKVX NSCLC
HCC-2998 colon = tested on: HCC-2998 colon
HCT-116 colon = tested on: HCT-116 colon
HCT-15 colon = tested on: HCT-15 colon
HL-60(TB) leukemia = tested on: HL-60(TB) leukemia
HOP-18 NSCLC = tested on: HOP-18 NSCLC
HOP-62 NSCLC = tested on: HOP-62 NSCLC
HOP-92 NSCLC = tested on: HOP-92 NSCLC
HT29 colon = tested on: HT29 colon
IGROV1 ovarian = tested on: IGROV1 ovarian
K-562 leukemia = tested on: K-562 leukemia
KM12 colon = tested on: KM12 colon
KM20L2 colon = tested on: KM20L2 colon
LOX IMVI melanoma = tested on: LOX IMVI melanoma
LXFL 529 NSCLC = tested on: LXFL 529 NSCLC
M14 melanoma = tested on: M14 melanoma
M19-MEL melanoma = tested on: M19-MEL melanoma
MALME-3M melanoma = tested on: MALME-3M melanoma
MOLT-4 leukemia = tested on: MOLT-4 leukemia
NCI-H226 lung = tested on: NCI-H226 lung
NCI-H23 lung = tested on: NCI-H23 lung
NCI-H460 lung = tested on: NCI-H460 lung
NCI-H522 lung = tested on: NCI-H522 lung
OVCAR-3 ovarian = tested on: OVCAR-3 ovarian
OVCAR-4 ovarian = tested on: OVCAR-4 ovarian
OVCAR-5 ovarian = tested on: OVCAR-5 ovarian
OVCAR-8 ovarian = tested on: OVCAR-8 ovarian
RPMI-8226 leukemia = tested on: RPMI-8226 leukemia
RXF 393 renal = tested on: RXF 393 renal
RXF-631 renal = tested on: RXF-631 renal
SF-268 CNS = tested on: SF-268 CNS
SF-295 CNS = tested on: SF-295 CNS
SF-539 CNS = tested on: SF-539 CNS
SK-MEL-2 melanoma = tested on: SK-MEL-2 melanoma
SK-MEL-28 melanoma = tested on: SK-MEL-28 melanoma
SK-MEL-5 melanoma = tested on: SK-MEL-5 melanoma
SK-OV-3 ovarian = tested on: SK-OV-3 ovarian
SN12C renal = tested on: SN12C renal
SNB-19 CNS = tested on: SNB-19 CNS
SNB-75 CNS = tested on: SNB-75 CNS
SNB-78 CNS = tested on: SNB-78 CNS
SR leukemia = tested on: SR leukemia
SW-620 colon = tested on: SW-620 colon
TK-10 renal = tested on: TK-10 renal
U251 CNS = tested on: U251 CNS
UACC-257 melanoma = tested on: UACC-257 melanoma
UACC-62 melanoma = tested on: UACC-62 melanoma
UO-31 renal = tested on: UO-31 renal
XF 498 CNS = tested on: XF 498 CNS

CC[C@@]1(O)C(=O)OCc2c1cc1n(c2=O)Cc2cc3c([N+](=O)[O-])c(OC)ccc3nc2-1
GI50 (786-0 renal): < 11.5 nM
TGI (786-0 renal): 67.2 nM
GI50 (A498 renal): 184 nM
TGI (A498 renal): 855 nM
GI50 (A549 NSCLC): 34.3 nM
TGI (A549 NSCLC): 2610 nM
GI50 (ACHN renal): < 10 nM
TGI (ACHN renal): 64.8 nM
GI50 (CAKI-1 renal): 17.2 nM
TGI (CAKI-1 renal): 582 nM
GI50 (CCRF-CEM leukemia): < 10 nM
TGI (CCRF-CEM leukemia): 34.9 nM
GI50 (COLO 205 colon): 529 nM
TGI (COLO 205 colon): 2640 nM
GI50 (DLD-1 colon): 1540 nM
TGI (DLD-1 colon): > 100000 nM
GI50 (DMS 273 small cell lung): < 10 nM
TGI (DMS 273 small cell lung): 377 nM
GI50 (EKVX NSCLC): 3030 nM
TGI (EKVX NSCLC): > 77500 nM
GI50 (HCC-2998 colon): 359 nM
TGI (HCC-2998 colon): 2140 nM
GI50 (HCT-116 colon): 121 nM
TGI (HCT-116 colon): 1500 nM
GI50 (HCT-15 colon): 386 nM
TGI (HCT-15 colon): 3710 nM
GI50 (HL-60(TB) leukemia): 23.6 nM
TGI (HL-60(TB) leukemia): 196 nM
GI50 (HOP-18 NSCLC): 81.6 nM
TGI (HOP-18 NSCLC): 1980 nM
GI50 (HOP-62 NSCLC): < 10 nM
GI50 (HOP-92 NSCLC): 375 nM
TGI (HOP-92 NSCLC): 2940 nM
GI50 (HT29 colon): 224 nM
TGI (HT29 colon): > 100000 nM
GI50 (IGROV1 ovarian): 272 nM
TGI (IGROV1 ovarian): 2320 nM
GI50 (K-562 leukemia): 168 nM
TGI (K-562 leukemia): > 20400 nM
GI50 (KM12 colon): 514 nM
TGI (KM12 colon): 6120 nM
GI50 (KM20L2 colon): 262 nM
TGI (KM20L2 colon): 5950 nM
GI50 (LOX IMVI melanoma): 19.4 nM
TGI (LOX IMVI melanoma): 183 nM
GI50 (LXFL 529 NSCLC): 1430 nM
TGI (LXFL 529 NSCLC): 8420 nM
GI50 (M14 melanoma): 44.5 nM
TGI (M14 melanoma): 635 nM
TGI (M19-MEL melanoma): 1600 nM
GI50 (MALME-3M melanoma): 374 nM
TGI (MALME-3M melanoma): 3090 nM
GI50 (MOLT-4 leukemia): < 10 nM
TGI (MOLT-4 leukemia): 83.5 nM
GI50 (NCI-H226 lung): 274 nM
GI50 (NCI-H23 lung): 15.5 nM
TGI (NCI-H23 lung): 175 nM
GI50 (NCI-H460 lung): < 10 nM
TGI (NCI-H460 lung): 118 nM
GI50 (NCI-H522 lung): 71.4 nM
TGI (NCI-H522 lung): 2160 nM
GI50 (OVCAR-3 ovarian): 424 nM
TGI (OVCAR-3 ovarian): 1340 nM
GI50 (OVCAR-4 ovarian): 574 nM
TGI (OVCAR-4 ovarian): 3020 nM
GI50 (OVCAR-5 ovarian): 64.9 nM
TGI (OVCAR-5 ovarian): 629 nM
GI50 (OVCAR-8 ovarian): 103 nM
TGI (OVCAR-8 ovarian): 19000 nM
GI50 (RPMI-8226 leukemia): 1380 nM
TGI (RPMI-8226 leukemia): 14500 nM
GI50 (RXF 393 renal): 120 nM
TGI (RXF 393 renal): 831 nM
GI50 (RXF-631 renal): 311 nM
TGI (RXF-631 renal): 4580 nM
GI50 (SF-268 CNS): 17.7 nM
TGI (SF-268 CNS): > 31800 nM
GI50 (SF-295 CNS): 10.1 nM
TGI (SF-295 CNS): 263 nM
GI50 (SF-539 CNS): < 12.2 nM
TGI (SF-539 CNS): 121 nM
GI50 (SK-MEL-2 melanoma): 968 nM
TGI (SK-MEL-2 melanoma): 2610 nM
GI50 (SK-MEL-28 melanoma): 544 nM
TGI (SK-MEL-28 melanoma): 8160 nM
GI50 (SK-MEL-5 melanoma): 119 nM
TGI (SK-MEL-5 melanoma): 285 nM
GI50 (SK-OV-3 ovarian): 48.1 nM
TGI (SK-OV-3 ovarian): 2490 nM
GI50 (SN12C renal): < 10 nM
TGI (SN12C renal): 433 nM
GI50 (SNB-19 CNS): 59.4 nM
TGI (SNB-19 CNS): 22200 nM
GI50 (SNB-75 CNS): 35 nM
TGI (SNB-75 CNS): 405 nM
GI50 (SNB-78 CNS): 2200 nM
TGI (SNB-78 CNS): > 65300 nM
GI50 (SR leukemia): < 10 nM
GI50 (SW-620 colon): 171 nM
TGI (SW-620 colon): 2550 nM
GI50 (TK-10 renal): 3580 nM
TGI (TK-10 renal): 55600 nM
GI50 (U251 CNS): < 10 nM
TGI (U251 CNS): 230 nM
GI50 (UACC-257 melanoma): 293 nM
TGI (UACC-257 melanoma): 2230 nM
GI50 (UACC-62 melanoma): < 10 nM
TGI (UACC-62 melanoma): 134 nM
GI50 (UO-31 renal): 84.5 nM
TGI (UO-31 renal): 595 nM
GI50 (XF 498 CNS): 508 nM
TGI (XF 498 CNS): 5070 nM
